Assay results: paper PMC4042160, “In silico, in vitro and cellular analysis with a kinome-wide inhibitor panel correlates cellular LRRK2 dephosphorylation to inhibitor activity on LRRK2” (Frontiers in Molecular Neuroscience, 2014)
Read-outs that look alike come from different tables or passages of the source. Values belong to the compound of their own block, whether it stands above or below them.

Legend:
[1] = molecular target: T1, GST-tagged truncated LRRK2 containing residues 970 to 2527 (Homo sapiens, UniProt Q5S007); assay: In vitro LRRKtide peptide-substrate kinase assay, single dose testing (10 μM); assay type: biochemical; conditions: LRRKtide assay @ 10 μM inhibitor; GST-LRRK2 970-2527; 10 μM ATP; mean, N = 3; solvent control = 100%
T1 construct: GST-tagged truncated LRRK2 containing residues 970 to 2527 (Life Technologies); purchased Life Technologies

[2] = molecular target: T2, full length LRRK2 protein (Homo sapiens, UniProt Q5S007); assay: In vitro LRRKtide kinase assay with full length recombinant LRRK2, dose-response (IC50/pIC50); assay type: biochemical
T2 construct: compounds were tested in triplicate with full length LRRK2 protein; made in house

LRRK2 phospho-Ser935 = molecular target: T3, LRRK2 phospho-Ser935 (Homo sapiens, UniProt Q5S007); assay: Cellular LRRK2 phosphoserine 935 dephosphorylation spotblot assay in SH-SY5Y cells stably expressing 3xFlag-LRRK2; assay type: cell-based; conditions: for Phosphorylation level relative to solvent (%) (cellular pS935 assay): @ 5 μM for 2 h, SH-SY5Y stably expressing LRRK2, pS935/total LRRK2; for Cellular pS935 (% @ 5 μM): pS935 level as % of control, 5 μM for 2 h
T3 construct: expressed in transfected cells

LRRK2 = conditions: 2011, read-out: IC50 in vitro LRRK2, published, cited from earlier work
LRRK2 pS935 [3] = tested on: LRRK2 pS935; parameters: method as in Dzamko et al., 2010; Deng et al., 2011; conditions: ref Dzamko et al., 2010; Deng et al., 2011; read-out: IC50 pS935 levels, western blot; cited from earlier work
LRRK2 pS935 [4] = tested on: LRRK2 pS935; parameters: method as in Hermanson et al., 2012; conditions: ref Hermanson et al., 2012; read-out: IC50 pS935 levels, time-resolved FRET; cited from earlier work
LRRK2 pS935 [5] = tested on: LRRK2 pS935; parameters: method as in Delbroek et al., 2013; conditions: ref Delbroek et al., 2013; read-out: IC50 pS935 levels, ELISA; cited from earlier work
[6] = LRRKtide phosphorylation, dose-response, read-out: IC50 in vitro (lrrktide)
[7] = SH-SY5Y cells with stable expression of LRRK2
[8] = LRRKtide phosphorylation, dose-response
[9] = pS935 dephosphorylation, SH-SY5Y cells with stable expression of LRRK2
[10] = pS935 dephosphorylation, SH-SY5Y cells with stable expression of LRRK2, read-out: IC50 cellular (pS935)

T1 sequence (Q5S007 970-2527): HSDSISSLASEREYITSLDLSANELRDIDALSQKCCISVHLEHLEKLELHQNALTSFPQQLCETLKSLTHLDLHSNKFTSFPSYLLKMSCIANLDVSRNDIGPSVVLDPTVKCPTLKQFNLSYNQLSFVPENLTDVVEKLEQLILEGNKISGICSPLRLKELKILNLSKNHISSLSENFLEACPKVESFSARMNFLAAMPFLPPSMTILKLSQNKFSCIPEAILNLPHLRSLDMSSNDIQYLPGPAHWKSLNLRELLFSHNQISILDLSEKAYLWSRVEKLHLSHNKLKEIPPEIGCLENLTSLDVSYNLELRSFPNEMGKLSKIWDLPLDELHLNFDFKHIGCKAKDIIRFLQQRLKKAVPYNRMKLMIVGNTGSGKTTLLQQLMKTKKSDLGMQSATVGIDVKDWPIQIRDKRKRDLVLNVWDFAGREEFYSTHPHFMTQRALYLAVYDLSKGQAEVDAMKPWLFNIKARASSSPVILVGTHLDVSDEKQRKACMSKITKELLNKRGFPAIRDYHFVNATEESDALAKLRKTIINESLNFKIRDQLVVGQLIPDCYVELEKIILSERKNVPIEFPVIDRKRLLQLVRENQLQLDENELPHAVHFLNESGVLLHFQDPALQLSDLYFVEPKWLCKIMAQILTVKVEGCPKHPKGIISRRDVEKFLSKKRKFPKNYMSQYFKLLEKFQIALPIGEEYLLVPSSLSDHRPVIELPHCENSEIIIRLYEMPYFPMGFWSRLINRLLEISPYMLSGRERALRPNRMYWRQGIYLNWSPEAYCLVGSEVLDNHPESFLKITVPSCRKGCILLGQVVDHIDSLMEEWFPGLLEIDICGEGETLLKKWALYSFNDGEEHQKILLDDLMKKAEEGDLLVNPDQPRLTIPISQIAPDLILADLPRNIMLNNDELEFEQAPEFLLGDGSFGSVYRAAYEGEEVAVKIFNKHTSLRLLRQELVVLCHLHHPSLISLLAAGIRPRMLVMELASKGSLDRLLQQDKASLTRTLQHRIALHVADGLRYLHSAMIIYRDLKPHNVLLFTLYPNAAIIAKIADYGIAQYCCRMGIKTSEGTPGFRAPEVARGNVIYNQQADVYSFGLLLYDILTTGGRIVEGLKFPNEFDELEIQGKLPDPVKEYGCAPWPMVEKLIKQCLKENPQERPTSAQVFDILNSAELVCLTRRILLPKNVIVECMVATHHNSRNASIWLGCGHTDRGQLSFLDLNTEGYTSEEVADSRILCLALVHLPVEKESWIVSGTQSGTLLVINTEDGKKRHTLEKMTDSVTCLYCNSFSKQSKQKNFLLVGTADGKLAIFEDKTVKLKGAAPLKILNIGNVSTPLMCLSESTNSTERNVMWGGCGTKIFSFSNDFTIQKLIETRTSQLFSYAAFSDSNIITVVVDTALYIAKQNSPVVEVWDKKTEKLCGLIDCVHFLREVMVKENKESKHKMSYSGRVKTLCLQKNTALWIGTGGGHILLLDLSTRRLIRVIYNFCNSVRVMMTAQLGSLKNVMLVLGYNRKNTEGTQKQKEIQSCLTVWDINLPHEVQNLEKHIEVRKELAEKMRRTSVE
T2 sequence (Q5S007 whole entry): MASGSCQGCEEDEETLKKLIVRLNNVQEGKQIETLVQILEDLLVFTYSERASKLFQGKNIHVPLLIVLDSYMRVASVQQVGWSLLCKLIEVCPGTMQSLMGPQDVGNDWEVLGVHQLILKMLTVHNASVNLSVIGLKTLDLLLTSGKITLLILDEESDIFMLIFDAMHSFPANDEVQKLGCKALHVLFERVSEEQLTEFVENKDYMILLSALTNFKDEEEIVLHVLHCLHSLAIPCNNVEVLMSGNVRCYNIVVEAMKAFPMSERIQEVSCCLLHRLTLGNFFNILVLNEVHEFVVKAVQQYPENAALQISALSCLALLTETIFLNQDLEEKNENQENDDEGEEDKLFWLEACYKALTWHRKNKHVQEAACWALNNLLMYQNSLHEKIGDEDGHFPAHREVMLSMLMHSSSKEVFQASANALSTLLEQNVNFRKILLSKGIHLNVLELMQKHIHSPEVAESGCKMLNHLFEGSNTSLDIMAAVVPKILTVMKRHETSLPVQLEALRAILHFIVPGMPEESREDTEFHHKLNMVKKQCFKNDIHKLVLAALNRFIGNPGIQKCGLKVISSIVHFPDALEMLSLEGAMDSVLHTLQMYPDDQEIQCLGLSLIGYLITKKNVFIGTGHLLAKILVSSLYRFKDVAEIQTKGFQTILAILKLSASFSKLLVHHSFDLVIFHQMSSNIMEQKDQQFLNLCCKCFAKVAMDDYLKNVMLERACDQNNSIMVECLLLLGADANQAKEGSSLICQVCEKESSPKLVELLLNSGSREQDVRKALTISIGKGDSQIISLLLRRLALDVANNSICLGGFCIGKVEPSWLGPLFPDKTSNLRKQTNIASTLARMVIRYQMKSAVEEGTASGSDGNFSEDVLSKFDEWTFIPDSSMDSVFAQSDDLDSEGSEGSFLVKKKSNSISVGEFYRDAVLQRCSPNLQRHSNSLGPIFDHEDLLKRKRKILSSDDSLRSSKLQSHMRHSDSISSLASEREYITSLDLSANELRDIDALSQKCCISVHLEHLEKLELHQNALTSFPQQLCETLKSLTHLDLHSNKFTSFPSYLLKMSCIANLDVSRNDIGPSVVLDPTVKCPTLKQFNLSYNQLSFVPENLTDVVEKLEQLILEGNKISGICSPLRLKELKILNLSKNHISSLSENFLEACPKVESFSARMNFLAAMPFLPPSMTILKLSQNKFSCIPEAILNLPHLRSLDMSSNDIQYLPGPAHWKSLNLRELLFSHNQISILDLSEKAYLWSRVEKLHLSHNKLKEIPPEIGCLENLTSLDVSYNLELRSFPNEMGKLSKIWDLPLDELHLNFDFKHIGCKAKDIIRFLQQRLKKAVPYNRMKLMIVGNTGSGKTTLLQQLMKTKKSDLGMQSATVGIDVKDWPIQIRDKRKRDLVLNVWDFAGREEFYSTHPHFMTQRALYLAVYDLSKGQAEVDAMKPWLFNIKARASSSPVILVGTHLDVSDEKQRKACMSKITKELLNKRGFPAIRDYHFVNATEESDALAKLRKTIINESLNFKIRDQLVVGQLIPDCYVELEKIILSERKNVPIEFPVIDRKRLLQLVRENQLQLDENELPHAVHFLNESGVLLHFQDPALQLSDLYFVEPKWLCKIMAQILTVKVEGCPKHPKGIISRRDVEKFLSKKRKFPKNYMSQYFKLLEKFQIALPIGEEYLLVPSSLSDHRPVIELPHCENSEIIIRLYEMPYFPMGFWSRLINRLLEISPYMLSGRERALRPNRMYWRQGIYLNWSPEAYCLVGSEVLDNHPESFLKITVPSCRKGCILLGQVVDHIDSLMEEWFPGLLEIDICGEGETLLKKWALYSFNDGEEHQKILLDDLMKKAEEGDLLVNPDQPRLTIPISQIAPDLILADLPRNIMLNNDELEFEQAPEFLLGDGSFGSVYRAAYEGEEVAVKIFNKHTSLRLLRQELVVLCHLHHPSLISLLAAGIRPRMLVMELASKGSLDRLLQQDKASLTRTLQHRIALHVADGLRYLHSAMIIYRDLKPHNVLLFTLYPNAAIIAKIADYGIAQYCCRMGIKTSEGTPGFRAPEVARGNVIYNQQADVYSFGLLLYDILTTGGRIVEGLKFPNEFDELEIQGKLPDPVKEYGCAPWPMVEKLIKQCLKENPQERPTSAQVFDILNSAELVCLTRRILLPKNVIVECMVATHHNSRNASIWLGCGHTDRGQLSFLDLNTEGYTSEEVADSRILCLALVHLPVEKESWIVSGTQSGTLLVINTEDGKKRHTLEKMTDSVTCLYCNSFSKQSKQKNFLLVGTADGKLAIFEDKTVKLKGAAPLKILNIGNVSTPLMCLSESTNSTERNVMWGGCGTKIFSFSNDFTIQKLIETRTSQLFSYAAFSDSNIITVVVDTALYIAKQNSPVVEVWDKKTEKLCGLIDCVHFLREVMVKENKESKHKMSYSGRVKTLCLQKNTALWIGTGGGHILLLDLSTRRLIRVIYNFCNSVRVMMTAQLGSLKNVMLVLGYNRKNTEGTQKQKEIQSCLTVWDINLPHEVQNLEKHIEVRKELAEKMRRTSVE
T3 sequence (Q5S007 whole entry): as above

Compound: CC(C)[C@H](CO)Nc1nc(Nc2cc(N)cc(Cl)c2)c2ncn(C(C)C)c2n1 [Aminopurvalanol A]
- % LRRKtide phosphorylation relative to solvent [1]: 7.36%
- IC50 [2, 6]: 2030 nM
- Phosphorylation level relative to solvent (%) (cellular pS935 assay) (LRRK2 phospho-Ser935): 121.05%
- Cellular pS935 (% @ 5 μM) (LRRK2 phospho-Ser935; [7]): 121.05%

Compound: CC(=O)O/N=C1/C(=C2/C(=O)Nc3cc(Br)ccc32)Nc2ccccc21 [GSK-3 inhibitor X]
- % LRRKtide phosphorylation relative to solvent [1]: 38.94%
- pIC50 in vitro (lrrktide) [2, 8]: <5
- IC50 [2, 6]: > 10000 nM
- Phosphorylation level relative to solvent (%) (cellular pS935 assay) (LRRK2 phospho-Ser935): 106.06%
- Cellular pS935 (% @ 5 μM) (LRRK2 phospho-Ser935; [7]): 106.06%

Compound: O=C1Nc2ccc3ncsc3c2/C1=C/c1cnc[nH]1 [PKR inhibitor]
- % LRRKtide phosphorylation relative to solvent [1]: 1.18%
- pIC50 in vitro (lrrktide) [2, 8]: 6.44
- IC50 [2, 6]: 363 nM
- Phosphorylation level relative to solvent (%) (cellular pS935 assay) (LRRK2 phospho-Ser935): 29.00%
- pIC50 cellular (pS935) (LRRK2 phospho-Ser935; [9]): 5.88
- IC50 (LRRK2 phospho-Ser935; [10]): 1310 nM
- Cellular pS935 (% @ 5 μM) (LRRK2 phospho-Ser935; [7]): 29%

Compound: COc1cc(C(=O)N2CCC(N3CCN(C)CC3)CC2)ccc1Nc1ncc2c(n1)N(C)c1ccccc1C(=O)N2C [LRRK2-IN1]
- IC50 ([2]; full length LRRK2, 10 μM ATP, read-out: IC50 (LRRKtide phosphorylation assay)): 3.54 nM
- IC50 (LRRK2 phospho-Ser935; SH-SY5Y stably overexpressing 3flag-LRRK2 WT, N ≥ 5, read-out: IC50 of phosphorylation at LRRK2 Ser935 (cellular spotblot)): 239 nM
- IC50 (LRRK2; 100 μM ATP in original study, ref Deng et al.): 13 nM
- IC50 (LRRK2 pS935 [3]): ~100 nM
- IC50 (LRRK2 pS935 [4]): 90 to 200 nM
- IC50 (LRRK2 pS935 [5]): 50 to 100 nM

Compound: CC(C)n1cnc2c(Nc3cccc(Cl)c3)nc(NCCO)nc21 [Compound 52]
- % LRRKtide phosphorylation relative to solvent [1]: 7.76%
- pIC50 in vitro (lrrktide) [2, 8]: 5.41
- IC50 [2, 6]: 3930 nM
- Phosphorylation level relative to solvent (%) (cellular pS935 assay) (LRRK2 phospho-Ser935): 76.44%
- Cellular pS935 (% @ 5 μM) (LRRK2 phospho-Ser935; [7]): 76.44%

Compound: COc1ccc(CNc2nc(N(CCO)CCO)nc3c2ncn3C(C)C)cc1 [Cdk2 inhibitor III]
- % LRRKtide phosphorylation relative to solvent [1]: 60.51%
- pIC50 in vitro (lrrktide) [2, 8]: <5
- IC50 [2, 6]: > 10000 nM
- Phosphorylation level relative to solvent (%) (cellular pS935 assay) (LRRK2 phospho-Ser935): 100.49%
- Cellular pS935 (% @ 5 μM) (LRRK2 phospho-Ser935; [7]): 100.49%

Compound: COc1cc2ncnc(Nc3cccc(Cl)c3)c2cc1OC [AG 1478]
- % LRRKtide phosphorylation relative to solvent [1]: 5.72%
- pIC50 in vitro (lrrktide) [2, 8]: 5.43
- IC50 [2, 6]: 3730 nM
- Phosphorylation level relative to solvent (%) (cellular pS935 assay) (LRRK2 phospho-Ser935): 75.11%
- Cellular pS935 (% @ 5 μM) (LRRK2 phospho-Ser935; [7]): 75.11%

Compound: COc1cc2ncnc(Nc3ccc(NC(=O)c4ccccc4)cc3)c2cc1OC [Aurora kinase inhibitor II]
- % LRRKtide phosphorylation relative to solvent [1]: 22.60%
- pIC50 in vitro (lrrktide) [2, 8]: <5
- IC50 [2, 6]: > 10000 nM
- Phosphorylation level relative to solvent (%) (cellular pS935 assay) (LRRK2 phospho-Ser935): 69.85%
- Cellular pS935 (% @ 5 μM) (LRRK2 phospho-Ser935; [7]): 69.85%

Compound: COc1cc(N2CCOCC2)ccc1Nc1ncc(F)c(Nc2ccccc2NS(C)(=O)=O)n1 [CZC-25146]
- IC50 ([2]; read-out: IC50 (LRRKtide phosphorylation assay)): 1.78 nM
- IC50 (LRRK2 phospho-Ser935; read-out: IC50 of phosphorylation at LRRK2 Ser935 (cellular spotblot)): 61 nM
- IC50 (LRRK2; ref Ramsden et al.): 4.76 nM

Compound: BPIQ-I
- % LRRKtide phosphorylation relative to solvent [1]: 17.30%
- pIC50 in vitro (lrrktide) [2, 8]: 5.12
- IC50 [2, 6]: 7650 nM
- Phosphorylation level relative to solvent (%) (cellular pS935 assay) (LRRK2 phospho-Ser935): 88.55%
- Cellular pS935 (% @ 5 μM) (LRRK2 phospho-Ser935; [7]): 88.55%

Compound: COc1cc(OC)c(C=C2C(O)=Nc3ccccc32)c(OC)c1 [IC261]
- % LRRKtide phosphorylation relative to solvent [1]: 89.62%
- IC50 [2, 6]: > 10000 nM
- Phosphorylation level relative to solvent (%) (cellular pS935 assay) (LRRK2 phospho-Ser935): 78.81%
- Cellular pS935 (% @ 5 μM) (LRRK2 phospho-Ser935; [7]): 78.81%

Compound: CCOc1cc2ncnc(Nc3cccc(Br)c3)c2cc1OCC [Compound 56]
- % LRRKtide phosphorylation relative to solvent [1]: 4.52%
- pIC50 in vitro (lrrktide) [2, 8]: 5.52
- IC50 [2, 6]: 3010 nM
- Phosphorylation level relative to solvent (%) (cellular pS935 assay) (LRRK2 phospho-Ser935): 86.56%
- Cellular pS935 (% @ 5 μM) (LRRK2 phospho-Ser935; [7]): 86.56%

More lines, now with the values ahead:

- % LRRKtide phosphorylation relative to solvent [1]: 2.05%
- pIC50 in vitro (lrrktide) [2, 8]: 7.37
- IC50 [2, 6]: 43 nM
- Phosphorylation level relative to solvent (%) (cellular pS935 assay) (LRRK2 phospho-Ser935): 52.43%
- Cellular pS935 (% @ 5 μM) (LRRK2 phospho-Ser935; [7]): 52.43%
Compound: Cc1[nH]c(/C=C2\C(=O)Nc3ccc(S(=O)(=O)N(C)c4cccc(Cl)c4)cc32)c(C)c1C(=O)N1CCN(C)CC1 [Met kinase inhibitor]

- % LRRKtide phosphorylation relative to solvent [1]: 4.57%
- IC50 [2, 6]: 10 nM
- Phosphorylation level relative to solvent (%) (cellular pS935 assay) (LRRK2 phospho-Ser935): 14.34%
- IC50 (LRRK2 phospho-Ser935; [10]): 423 nM
- Cellular pS935 (% @ 5 μM) (LRRK2 phospho-Ser935; [7]): 14.34%
Compound: CN(C)S(=O)(=O)c1ccc2c(c1)/C(=C/c1cc3c([nH]1)CCCC3)C(=O)N2 [SU6656]

- % LRRKtide phosphorylation relative to solvent [1]: 2.19%
- pIC50 in vitro (lrrktide) [2, 8]: 6.56
- IC50 [2, 6]: 273 nM
- Phosphorylation level relative to solvent (%) (cellular pS935 assay) (LRRK2 phospho-Ser935): 45.08%
- pIC50 cellular (pS935) (LRRK2 phospho-Ser935; [9]): <5.7
- IC50 (LRRK2 phospho-Ser935; [10]): > 2000 nM
- Cellular pS935 (% @ 5 μM) (LRRK2 phospho-Ser935; [7]): 45.08%
Compound: Cc1cc(C)c(/C=C2\C(=O)Nc3ccccc32)[nH]1 [VEGF receptor 2 kinase inhibitor III]

- % LRRKtide phosphorylation relative to solvent [1]: 2.23%
- pIC50 in vitro (lrrktide) [2, 8]: 6.16
- IC50 [2, 6]: 685 nM
- Phosphorylation level relative to solvent (%) (cellular pS935 assay) (LRRK2 phospho-Ser935): 101.13%
- Cellular pS935 (% @ 5 μM) (LRRK2 phospho-Ser935; [7]): 101.13%
Compound: O=C1Nc2ccccc2/C1=C1/Nc2ccccc2/C1=N\OCC(O)CO (stereo not drawn) [Indirubin derivative E804]

- % LRRKtide phosphorylation relative to solvent [1]: 0.79%
- IC50 [2, 6]: 10.9 nM
- Phosphorylation level relative to solvent (%) (cellular pS935 assay) (LRRK2 phospho-Ser935): 14.19%
- IC50 (LRRK2 phospho-Ser935; [10]): 316 nM
- Cellular pS935 (% @ 5 μM) (LRRK2 phospho-Ser935; [7]): 14.19%
Compound: CCN(CC)CCNC(=O)c1c(C)[nH]c(/C=C2\C(=O)Nc3ccc(Cl)cc32)c1C [SU11652]

- % LRRKtide phosphorylation relative to solvent [1]: 26.67%
- pIC50 in vitro (lrrktide) [2, 8]: 7.61
- IC50 [2, 6]: 24.6 nM
- Phosphorylation level relative to solvent (%) (cellular pS935 assay) (LRRK2 phospho-Ser935): 60.83%
- Cellular pS935 (% @ 5 μM) (LRRK2 phospho-Ser935; [7]): 60.83%
Compound: CCOC(=O)c1c(C)[nH]c(/C=C2\C(=O)Nc3ccccc32)c1C [VEGF receptor 2 kinase inhibitor I]

- % LRRKtide phosphorylation relative to solvent [1]: 4.13%
- pIC50 in vitro (lrrktide) [2, 8]: 7.44
- IC50 [2, 6]: 36.3 nM
- Phosphorylation level relative to solvent (%) (cellular pS935 assay) (LRRK2 phospho-Ser935): 37.26%
- pIC50 cellular (pS935) (LRRK2 phospho-Ser935; [9]): <5.7
- IC50 (LRRK2 phospho-Ser935; [10]): > 2000 nM
- Cellular pS935 (% @ 5 μM) (LRRK2 phospho-Ser935; [7]): 37.26%
Compound: O=C1Nc2ccc(Br)cc2/C1=C/c1cc2c([nH]1)CCCC2 [VEGF receptor 2 kinase inhibitor II]

- % LRRKtide phosphorylation relative to solvent [1]: 32.67%
- pIC50 in vitro (lrrktide) [2, 8]: 5.05
- IC50 [2, 6]: 8870 nM
- Phosphorylation level relative to solvent (%) (cellular pS935 assay) (LRRK2 phospho-Ser935): 67.74%
- Cellular pS935 (% @ 5 μM) (LRRK2 phospho-Ser935; [7]): 67.74%
Compound: CCC(=O)Nc1ccc2ncnc(Nc3cccc(Br)c3)c2c1 [PD 174265]

- % LRRKtide phosphorylation relative to solvent [1]: 57.28%
- pIC50 in vitro (lrrktide) [2, 8]: <5
- IC50 [2, 6]: > 10000 nM
- Phosphorylation level relative to solvent (%) (cellular pS935 assay) (LRRK2 phospho-Ser935): 65.67%
- Cellular pS935 (% @ 5 μM) (LRRK2 phospho-Ser935; [7]): 65.67%
Compound: Nc1ccc2ncnc(NCCc3ccc(Oc4ccccc4)cc3)c2c1 [NF-KB activation inhibitor]
